Measurements taken from US6995135B2, “Peptides and peptidomimetics having anti-proliferative activity and/or that augment nucleic acid damaging agents or treatments” (priority 2002, dated 2006).
pIC50: −log10 of the molar value. Read-outs that look alike come from different tables or passages of the source. Square brackets hold non-standard residues; d marks the D form. Peptide text beside a SMILES is read from it. dPhe(4-NO2) = N[C@H](Cc1ccc([N+](=O)[O-])cc1)C(=O)O; dPhe(F5) = N[C@H](Cc1c(F)c(F)c(F)c(F)c1F)C(=O)O; dBpa = N[C@H](Cc1ccc(C(=O)c2ccccc2)cc1)C(=O)O; dCha = N[C@H](CC1CCCCC1)C(=O)O

Columns and labels:
[1] = target: T1, recombinant human full length Chk1 (Homo sapiens, UniProt O14757); assay: In vitro kinase inhibition (CycLex), phosphorylation of serine 216 on GST-Cdc25C; format: biochemical
T1 construct: baculovirus derived recombinant human full length Chk1 with histidine tag; histidine tag; host or cells: baculovirus system (insect cells)
T1 sequence (O14757 1-476): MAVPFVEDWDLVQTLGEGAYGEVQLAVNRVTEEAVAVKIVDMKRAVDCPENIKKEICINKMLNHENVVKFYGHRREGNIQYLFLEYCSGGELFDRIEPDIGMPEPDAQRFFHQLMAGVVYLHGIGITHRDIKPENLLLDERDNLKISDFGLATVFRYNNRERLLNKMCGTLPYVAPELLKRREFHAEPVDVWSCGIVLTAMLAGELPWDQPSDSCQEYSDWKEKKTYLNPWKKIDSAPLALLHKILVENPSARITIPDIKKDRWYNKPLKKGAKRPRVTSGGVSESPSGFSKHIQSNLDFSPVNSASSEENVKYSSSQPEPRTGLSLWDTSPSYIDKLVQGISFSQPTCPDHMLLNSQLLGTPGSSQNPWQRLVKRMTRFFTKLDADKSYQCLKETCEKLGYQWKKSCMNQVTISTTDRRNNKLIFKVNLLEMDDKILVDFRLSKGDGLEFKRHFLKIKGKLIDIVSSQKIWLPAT
Method: (§1) In vitro kinase inhibition analysis was performed by CycLex, Co. Ltd., Nagano, Japan. Briefly, baculovirus derived recombinant human full length Chk1 with histidine tag or E. Coli derived recombinant human full length Chk2 fused with GST were used as kinases. E. Coli derived recombinant GST-Cdc25C (amino acis 167–267) was used as a substrate. Reaction conditions were 20 mM Hepes-KOH (pH7.5), 1 mM DTT, […] BSA, 10 mM MgCl2 and […] ATP at 30 degree for 60 min. The phosphorylation of serine 216 on GST-Cdc25C was detected by anti-Cdc25C-phosphorylated S216 antibody with enzyme linked immune assay.

[2] = target: T2, recombinant human full length Chk2 (Homo sapiens, UniProt O96017); assay: as above; format: biochemical
T2 construct: E. Coli derived recombinant human full length Chk2 fused with GST; host or cells: E. coli
T2 sequence (O96017 whole entry, the tested form may be a part): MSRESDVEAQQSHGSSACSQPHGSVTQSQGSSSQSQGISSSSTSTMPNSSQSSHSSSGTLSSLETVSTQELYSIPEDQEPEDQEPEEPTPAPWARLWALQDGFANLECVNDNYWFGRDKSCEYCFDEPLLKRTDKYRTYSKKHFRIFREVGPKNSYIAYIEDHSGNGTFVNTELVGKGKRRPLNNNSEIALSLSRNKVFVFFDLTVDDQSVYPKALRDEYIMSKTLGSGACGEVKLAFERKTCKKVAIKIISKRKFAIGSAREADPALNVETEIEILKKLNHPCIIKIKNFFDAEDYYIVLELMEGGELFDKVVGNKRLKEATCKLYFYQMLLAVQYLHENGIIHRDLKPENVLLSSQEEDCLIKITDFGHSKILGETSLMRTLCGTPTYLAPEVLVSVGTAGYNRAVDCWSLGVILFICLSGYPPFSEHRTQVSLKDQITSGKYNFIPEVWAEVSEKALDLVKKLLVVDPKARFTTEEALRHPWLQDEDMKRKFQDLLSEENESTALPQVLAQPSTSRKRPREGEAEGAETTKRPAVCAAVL
Method: as §1

Jurkat cells [3] = assay: M phase checkpoint abrogation / non specific toxicity in colchicine treated Jurkat cells, flow cytometry; format: cell-based; conditions: with 5 μg/ml colchicine, 24 hours
Method: Cell-cycle analysis The cell cycle status of the cells treated with bleomycin or adriamcin were analyzed by flow cytometry as described by Kawabe (1997) Nature 385:454–458. In brief, two million cells were re-suspended and incubated in 200 μul Krishan's solution (0.1% Sodium citrate, 50 μg/ml PI, 20 μg/ml RNase A and 0.5% NP-40) for 1 hr at 4° C. and analyzed by a flow cytometry, FACScan™ (Beckton Dickinson, Mountain View, Calif.) with the program CELLQuest™ (Beckton Dickinson).
Flow cytometry analysis of M phase checkpoint abrogation by the compounds was performed using human T cell leukemia Jurkat cell line treated with colchicine (5 μg/ml or 0.5 μg/ml) and various doses of peptide/peptidomimetics for 24 hr (FIG. 12). The DNA of the cells was stained and analyzed by flow cytometry as described above.
The “Appearance of side effect when used alone” indicates the peptide/peptidomimetic dose that produced Jurkat cell cycle disturbance, i.e., the appearance of significant amounts of SubG1 cells (dead cells) or cells in which the DNA content of each varies more than usual. […]
A comparison between G2 checkpoint abrogating activity and non specific toxicity (M checkpoint abrogation) by CB501 was performed. […] The DNA amount in each of the treated cells was analyzed by flow cytometry, as previously described.

[4] = Maximal tolerated dose in mouse by single injection; conditions: in vivo, observed for a week
Jurkat cells [5] = assay: G2 checkpoint abrogation in bleomycin treated Jurkat cells, flow cytometry; format: cell-based, human; conditions: for G2 abrogating dose: Jurkat cells, with 40 μg/ml bleomycine, 24 hours, dose with detectable G2 checkpoint abrogation; for G2 checkpoint abrogating activity (in words): bleomycin (40 μg/ml) treated Jurkat cells, % G2/M cells
Method: Flow cytometry analysis of G2 checkpoint abrogation was performed using human leukemia derived Jurkat cell line. In brief, cultured cells were treated with various doses of peptide/peptidomimetic and 40 μg/ml bleomycine for 24 hr. The DNA of the cells was stained with propidium iodide and analyzed by flow cytometry.
The “Appearance of side effect when used alone” indicates the peptide/peptidomimetic dose that produced Jurkat cell cycle disturbance, i.e., the appearance of significant amounts of SubG1 cells (dead cells) or cells in which the DNA content of each varies more than usual. […] The “G2 abrogating dose” indicates the peptide/peptidomimetic dose with 40 μg/ml bleomycine that produced detectable G2 checkpoint abrogation activity following treatment for 24 hours. The “Appearance of side effect when used with colchicine” indicates the peptide/peptidomimetic dose with 5 μg/ml colchicine that produced Jurkat cell cycle disturbance following treatment for 24 hours.

[6] = Human serum treatment analysis, residual G2 checkpoint abrogating activity; format: in vitro ADME; conditions: d-type amino acid peptides compared with l-type peptide such as CBP413
Method: Serum analysis was performed to determine the stability of peptides in mouse and human serum. Briefly, peptides (10 mM or 2.5 mM) were incubated with freshly prepared human serum at 37 degrees for 1 hr. CBP50 (10 mM) was incubated with freshly prepared mouse serum for 1 hr at 37 degree. Jurkat cells were treated with the serum with or without peptides and bleomycin (40 μg/ml) and incubated for 24 hr. The population of G2 phase cells was determined by flow cytometry as previously described. The residual G2 checkpoint abrogating activity of serum treated peptides were determined by comparing the % G2 cells of the treated serum and the standard curve produced with medium treated peptides, bleomycin and Jurkat cells (Table 5A).

N=C(N)NCCC[C@@H](NC(=O)[C@@H](CCCNC(=N)N)NC(=O)[C@@H](CCC(N)=O)NC(=O)[C@@H](CCCNC(=N)N)NC(=O)[C@@H](CCCNC(=N)N)NC(=O)[C@@H](CCCNC(=N)N)NC(=O)[C@@H](CC1CCCCC1)NC(=O)[C@@H](Cc1c(F)c(F)c(F)c(F)c1F)NC(=O)[C@@H](CC(=O)O)NC(=O)[C@@H](CO)NC(=O)[C@@H](Cc1c[nH]c2ccccc12)NC(=O)[C@@H](CO)NC(=O)[C@H](N)Cc1ccc(C(=O)c2ccccc2)cc1)C(=O)O [CBP506, (d-Bpa)(d-Ser)(d-Trp)(d-Ser)(d-Asp)(d-Phe-2,3,4,5,6-F)(d-Cha)(d-Arg)(d-Arg)(d-Arg)(d-Gln)(d-Arg)(d-Arg)] (H-[dBpa][dS][dW][dS][dD][dPhe(F5)][dCha][dR][dR][dR][dQ][dR][dR]-OH; N-terminus and C-terminus assumed)
pIC50 [1]: 4.42
pIC50 [2]: 4.17

N=C(N)NCCC[C@H](NC(=O)CNC(=O)[C@@H](N)Cc1ccc(O)cc1)C(=O)N[C@@H](CCCCN)C(=O)N[C@@H](CCCCN)C(=O)N[C@@H](CCCNC(=N)N)C(=O)N[C@@H](CCCNC(=N)N)C(=O)N[C@@H](CCC(N)=O)C(=O)N[C@@H](CCCNC(=N)N)C(=O)N[C@@H](CCCNC(=N)N)C(=O)N[C@@H](CCCNC(=N)N)C(=O)N[C@@H](CC1CCCCC1)C(=O)N[C@@H](Cc1c(F)c(F)c(F)c(F)c1F)C(=O)N[C@@H](CCCNC(=N)N)C(=O)N[C@@H](CO)C(=O)N1CCC[C@H]1C(=O)N[C@@H](CO)C(=O)N[C@@H](Cc1ccc(O)cc1)C(=O)O [CBP420, (l-Tyr)(l-Gly)(l-Arg)(l-Lys)(l-Lys)(l-Arg)(l-Arg)(l-Gln)(l-Arg)(l-Arg)(l-Arg)(l-Cha)(l-Phe-2,3,4,5,6-F)(l-Arg)(l-Ser)(l-Pro)(l-Ser)(l-Tyr)]
Appearance of side effect when used with Colchicine (Jurkat cells [3]): ≧50 μM

N=C(N)NCCC[C@H](NC(=O)CNC(=O)[C@@H](N)Cc1ccc(O)cc1)C(=O)N[C@@H](CCCCN)C(=O)N[C@@H](CCCCN)C(=O)N[C@@H](CCCNC(=N)N)C(=O)N[C@@H](CCCNC(=N)N)C(=O)N[C@@H](CCC(N)=O)C(=O)N[C@@H](CCCNC(=N)N)C(=O)N[C@@H](CCCNC(=N)N)C(=O)N[C@@H](CCCNC(=N)N)C(=O)N[C@@H](CC1CCCCC1)C(=O)N[C@@H](Cc1c(F)c(F)c(F)c(F)c1F)C(=O)N[C@@H](CCCNC(=N)N)C(=O)N[C@@H](CO)C(=O)N1CCC[C@H]1C(=O)N[C@@H](CO)C(=O)N[C@@H](Cc1ccc(O)cc1)C(=O)N[C@@H](Cc1ccc(O)cc1)C(=O)O [CBP413, (l-Tyr)(l-Gly)(l-Arg)(l-Lys)(l-Lys)(l-Arg)(l-Arg)(l-Gln)(l-Arg)(l-Arg)(l-Arg)(l-Cha)(l-Phe-2,3,4,5,6-F)(l-Arg)(l-Ser)(l-Pro)(l-Ser)(l-Tyr)(l-Tyr)]
MTD ([4]; ip, single intra-peritoneal injection, read-out: MTD (ip)): 147 mg/kg
MTD ([4]; single intravenous injection, read-out: MTD (iv)): 14 mg/kg

N=C(N)NCCC[C@@H](NC(=O)[C@@H](CCCCN)NC(=O)[C@@H](CCCCN)NC(=O)[C@@H](CCCNC(=N)N)NC(=O)[C@@H](CCCNC(=N)N)NC(=O)[C@@H](CCC(N)=O)NC(=O)[C@@H](CCCNC(=N)N)NC(=O)[C@@H](CCCNC(=N)N)NC(=O)[C@@H](CCCNC(=N)N)NC(=O)[C@@H](CC1CCCCC1)NC(=O)[C@@H](Cc1c(F)c(F)c(F)c(F)c1F)NC(=O)[C@@H](CCCNC(=N)N)NC(=O)[C@@H](CO)NC(=O)CNC(=O)[C@@H](CO)NC(=O)[C@@H](Cc1ccc(O)cc1)NC(=O)[C@H](N)Cc1ccc(O)cc1)C(=O)NCC(=O)N[C@H](Cc1ccc(O)cc1)C(=O)O [CBP450, (d-Tyr)(d-Tyr)(d-Ser)(l-Gly)(d-Ser)(d-Arg)(d-Phe-2,3,4,5,6-F)(d-Cha)(d-Arg)(d-Arg)(d-Arg)(d-Gln)(d-Arg)(d-Arg)(d-Lys)(d-Lys)(d-Arg)(l-Gly)(d-Tyr)] (H-[dY][dY][dS]G[dS][dR][dPhe(F5)][dCha][dR][dR][dR][dQ][dR][dR][dK][dK][dR]G[dY]-OH; N-terminus and C-terminus assumed)
G2 abrogating dose (Jurkat cells [5]): ≧0.78 μM

(d-Arg)(d-Arg)(d-Arg)(d-Bpa)(d-Arg)(d-Arg)(d-Arg)(d-Phe-2,3,4,5,6-F)(d-Cha) [CBP703]
G2 checkpoint abrogating activity (in words) (Jurkat cells [5]): retain G2 checkpoint abrogating activity comparable to other peptides having significant G2 checkpoint abrogating activity

N=C(N)NCCC[C@@H](NC(=O)[C@@H](CCCNC(=N)N)NC(=O)[C@@H](CCC(N)=O)NC(=O)[C@@H](CCCNC(=N)N)NC(=O)[C@@H](CCCNC(=N)N)NC(=O)[C@@H](CCCNC(=N)N)NC(=O)[C@@H](CC1CCCCC1)NC(=O)[C@@H](Cc1c(F)c(F)c(F)c(F)c1F)NC(=O)[C@@H](CO)NC(=O)[C@@H](Cc1c[nH]c2ccccc12)NC(=O)[C@@H](CO)NC(=O)[C@@H](Cc1ccc(C(=O)c2ccccc2)cc1)NC(=O)[C@H](N)Cc1ccc(O)cc1)C(=O)O [CBP500, (d-Tyr)(d-Bpa)(d-Ser)(d-Trp)(d-Ser)(d-Phe-2,3,4,5,6-F)(d-Cha)(d-Arg)(d-Arg)(d-Arg)(d-Gln)(d-Arg)(d-Arg)] (H-[dY][dBpa][dS][dW][dS][dPhe(F5)][dCha][dR][dR][dR][dQ][dR][dR]-OH; N-terminus and C-terminus assumed)
G2 abrogating dose (Jurkat cells [5]): ≧0.39 μM

(d-Arg)(d-Arg)(d-Arg)(d-Bpa)(d-Arg)(d-Trp)(d-Arg)(d-Phe-2,3,4,5,6-F)(d-Cha) [CBP701]
G2 checkpoint abrogating activity (in words) (Jurkat cells [5]): retain G2 checkpoint abrogating activity comparable to other peptides having significant G2 checkpoint abrogating activity

(d-Arg)(d-Arg)(d-Arg)(d-Arg)(d-Bpa)(d-Arg)(d-Trp)(d-Arg)(d-Phe-2,3,4,5,6-F)(d-Cha) [CBP702]
G2 checkpoint abrogating activity (in words) (Jurkat cells [5]): retain G2 checkpoint abrogating activity comparable to other peptides having significant G2 checkpoint abrogating activity

(d-Arg)(d-Arg)(d-Bpa)(d-Arg)(d-Arg)(d-Arg)(d-Phe-2,3,4,5,6-F)(d-Cha) [CBP700]
G2 checkpoint abrogating activity (in words) (Jurkat cells [5]): retain G2 checkpoint abrogating activity comparable to other peptides having significant G2 checkpoint abrogating activity

N=C(N)NCCC[C@@H](NC(=O)[C@@H](CCCNC(=N)N)NC(=O)[C@@H](CCC(N)=O)NC(=O)[C@@H](CCCNC(=N)N)NC(=O)[C@@H](CCCNC(=N)N)NC(=O)[C@@H](CCCNC(=N)N)NC(=O)[C@@H](CC1CCCCC1)NC(=O)[C@@H](Cc1ccc([N+](=O)[O-])cc1)NC(=O)[C@@H](CO)NC(=O)[C@@H](Cc1c[nH]c2ccccc12)NC(=O)[C@@H](CO)NC(=O)[C@H](N)Cc1ccc(C(=O)c2ccccc2)cc1)C(=O)O [CBP603, (d-Bpa)(d-Ser)(d-Trp)(d-Ser)(d-Phe4No2)(d-Cha)(d-Arg)(d-Arg)(d-Arg)(d-Gln)(d-Arg)(d-Arg)] (H-[dBpa][dS][dW][dS][dPhe(4-NO2)][dCha][dR][dR][dR][dQ][dR][dR]-OH; N-terminus and C-terminus assumed)
Stability in serum (in words) [6]: more stable in serum
